Assay results from the NIST ThermoML archive (doi:10.1021/je500977g).

How the values were obtained:
[1] = Liquid, Vibrating tube method
[2] = mn = molality of the nth substance listed, in mol/kg; conditions: Liquid, m2 = 0

O [water]
mass density [kg/m3], [1]
Conditions | 101 kPa | 10000 kPa | 25000 kPa | 50000 kPa | 75000 kPa | 100000 kPa
278.15 K | 999.96 | 1004.78 | 1011.88 | 1023.2 | 1033.92 | 1044.08
288.15 K | – | 1003.67 | 1010.42 | 1021.21 | 1031.47 | 1041.23
298.15 K | – | 1001.47 | 1007.99 | 1018.44 | 1028.38 | 1037.86
308.15 K | – | 998.36 | 1004.75 | 1014.97 | 1024.71 | 1034
323.15 K | 988.03 | 992.31 | 998.61 | 1008.68 | 1018.27 | 1027.42

O [water] + C[N+](C)(C)[O-]
mass density [kg/m3], [2]
Conditions | 278.15 K | 288.15 K | 298.15 K | 308.15 K | 323.15 K
101 kPa, Vibrating tube method | 999.96 | – | – | – | 988.03
10000 kPa, Constant-volume piezometry | 1004.78 | 1003.67 | 1001.47 | 998.36 | 992.31
25000 kPa, Constant-volume piezometry | 1011.88 | 1010.42 | 1007.99 | 1004.75 | 998.61
50000 kPa, Constant-volume piezometry | 1023.2 | 1021.21 | 1018.44 | 1014.97 | 1008.68
75000 kPa, Constant-volume piezometry | 1033.92 | 1031.47 | 1028.38 | 1024.71 | 1018.27
100000 kPa, Constant-volume piezometry | 1044.08 | 1041.23 | 1037.86 | 1034 | 1027.42
